From patent publication US11254686B1 (Corvus Pharmaceuticals, Inc., priority 2017, dated 2022)

Key:
adenosine A2B receptor = adenosine A2B receptor (Homo sapiens (Human), UniProt P29275); assay: Adenosine receptor activity assay (Table 1), A2B activity; format: biochemical; details: for Ratio: A2A activity to A2B activity (A2A/A2B); for IC50: read-out: Ave A2B cAMP IC50
adenosine A2A receptor = adenosine A2A receptor (Homo sapiens (Human), UniProt P29274); assay: Adenosine receptor activity assay (Table 1), A2A activity; format: biochemical; details: read-out: Ave A2A cAMP IC50
Chain of adenosine A2A receptor (P29274 whole entry): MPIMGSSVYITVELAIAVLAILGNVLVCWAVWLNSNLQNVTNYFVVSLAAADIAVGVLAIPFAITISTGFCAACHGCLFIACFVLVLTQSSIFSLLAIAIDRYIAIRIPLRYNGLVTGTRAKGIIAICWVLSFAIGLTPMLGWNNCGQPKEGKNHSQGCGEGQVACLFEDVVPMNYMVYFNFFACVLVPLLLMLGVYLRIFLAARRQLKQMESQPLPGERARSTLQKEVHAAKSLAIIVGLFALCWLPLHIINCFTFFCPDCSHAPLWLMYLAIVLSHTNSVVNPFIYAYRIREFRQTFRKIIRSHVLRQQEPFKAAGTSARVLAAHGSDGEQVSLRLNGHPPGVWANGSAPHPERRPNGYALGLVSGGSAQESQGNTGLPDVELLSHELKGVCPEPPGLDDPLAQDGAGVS

Chain of adenosine A2B receptor (P29275 whole entry): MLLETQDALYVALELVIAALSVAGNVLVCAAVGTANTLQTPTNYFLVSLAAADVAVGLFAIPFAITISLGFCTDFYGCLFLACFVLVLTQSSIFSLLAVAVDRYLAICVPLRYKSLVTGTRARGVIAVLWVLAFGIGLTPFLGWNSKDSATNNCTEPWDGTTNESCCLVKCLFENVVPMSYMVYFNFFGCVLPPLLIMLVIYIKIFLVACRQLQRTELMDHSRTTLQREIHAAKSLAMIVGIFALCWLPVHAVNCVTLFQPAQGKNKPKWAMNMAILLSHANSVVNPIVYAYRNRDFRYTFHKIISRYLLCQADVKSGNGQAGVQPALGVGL

Row | Structure (SMILES) | Ratio (adenosine A2B receptor) | IC50 (adenosine A2B receptor) | IC50 (adenosine A2A receptor)
1 | O=C(c1nc(NCc2ccccc2)nc2ccsc12)N1CCCC1 [Example Z39, (2-(Benzylamino)thieno[3,2-d]pyrimidin-4-yl)(pyrrolidin-1-yl)methanone] | 1.22 | 100 to 500 nM | 100 to 500 nM
2 | O=C(c1nc(NCc2ccccc2)nc2ccsc12)N1CC[C@H](O)C1 [Example Z40, (S)-(2-(Benzylamino)thieno[3,2-d]pyrimidin-4-yl)(3-hydroxypyrrolidin-1-yl)methanone] | 21.05 | 100 to 500 nM | > 500 nM
3 | CCN(CC)C(=O)c1nc(N[C@@H](C)c2cccnc2)nc2ccsc12 [Example Z41, (S)—N,N-Diethyl-2-((1-(pyridin-3-yl)ethyl)amino)thieno[3,2-d]pyrimidine-4-carboxamide] | 1.00 | > 500 nM | > 500 nM
4 | O=C(c1nc(NCc2cccnn2)nc2ccsc12)N1CCCC1 [Example Z43, (2-((Pyridazin-3-ylmethyl)amino)thieno[3,2-d]pyrimidin-4-yl)(pyrrolidin-1-yl)methanone] | 33.44 | 100 to 500 nM | > 500 nM
5 | CC(NC(=O)c1nc(NC(C)c2cccnc2)nc2ccsc12)c1cccnc1 (stereo not shown) [Example Z44, N-(1-(Pyridin-3-yl)ethyl)-2-((1-(pyridin-3-yl)ethyl)amino)thieno[3,2-d]pyrimidine-4-carboxamide] | 44.44 | 100 to 500 nM | > 500 nM
6 | C[C@H](Nc1nc(C(=O)N2CCC[C@@H]2CO)c2sccc2n1)c1cccnc1 [Example Z46, ((R)-2-(Hydroxymethyl)pyrrolidin-1-yl)(2-(((S)-1-(pyridin-3-yl)ethyl)amino)thieno[3,2-d]pyrimidin-4-yl)methanone] | 30.80 | 100 to 500 nM | > 500 nM
7 | C[C@H](Nc1nc(C(=O)N2CCC[C@H]2CO)c2sccc2n1)c1cccnc1 [Example Z47, ((S)-2-(Hydroxymethyl)pyrrolidin-1-yl)(2-(((S)-1-(pyridin-3-yl)ethyl)amino)thieno[3,2-d]pyrimidin-4-yl)methanone] | 1.00 | > 500 nM | > 500 nM
8 | CC(Nc1nc(C(=O)N2CC[C@@H](F)C2)c2sccc2n1)c1cccnc1 (stereo partly drawn) [Example Z48, ((R)-3-Fluoropyrrolidin-1-yl)(2-((1-(pyridin-3-yl)ethyl)amino)thieno[3,2-d]pyrimidin-4-yl)methanone] | 9.26 | 10 to 50 nM | 100 to 500 nM
9 | C[C@H](Nc1nc(C(=O)N2CCN(CCCc3ccccc3)CC2)c2sccc2n1)c1cccnc1 [Example Z69, (S)-(4-(3-Phenylpropyl)piperazin-1-yl)(2-((1-(pyridin-3-yl)ethyl)amino)thieno[3,2-d]pyrimidin-4-yl)methanone] | 0.92 | > 500 nM | > 500 nM
10 | O=C(c1nc(NCc2cccc(O)n2)nc2ccsc12)N1CCCC1 [Example Z70, (2-(((6-Hydroxypyridin-2-yl)methyl)amino)thieno[3,2-d]pyrimidin-4-yl)(pyrrolidin-1-yl)methanone] | 10.89 | 50 to 100 nM | > 500 nM
11 | O=C(c1nc(NCc2cccc(F)n2)nc2ccsc12)N1CCCC1 [Example Z71, (2-(((6-Fluoropyridin-2-yl)methyl)amino)thieno[3,2-d]pyrimidin-4-yl)(pyrrolidin-1-yl)methanone] | 12.97 | 50 to 100 nM | > 500 nM
12 | O=C(c1nc(NCc2ccc(C(F)(F)F)nc2)nc2ccsc12)N1CC[C@H](O)C1 [Example Z75, (S)-(3-Hydroxypyrrolidin-1-yl)(2-(((6-(trifluoromethyl)pyridin-3-yl)methyl)amino)thieno[3,2-d]pyrimidin-4-yl)methanone] | 1.00 | > 500 nM | > 500 nM
13 | O=C(c1nc(NCc2ccc(C(F)(F)F)nc2)nc2ccsc12)N1CCCC1 [Example Z76, Pyrrolidin-1-yl(2-(((6-(trifluoromethyl)pyridin-3-yl)methyl)amino)thieno[3,2-d]pyrimidin-4-yl)methanone] | 0.22 | > 500 nM | 100 to 500 nM
14 | CC(CNC(=O)c1nc(N[C@@H](C)c2ccccn2)nc2ccsc12)Oc1cccnc1 (stereo partly drawn) [Example Z77, 2-(((S)-1-(Pyridin-2-yl)ethyl)amino)-N-(2-(pyridin-3-yloxy)propyl)thieno[3,2-d]pyrimidine-4-carboxamide] | 3.77 | 100 to 500 nM | 100 to 500 nM
15 | O=C(c1nc(NCc2cccc(F)c2)nc2ccsc12)N1CCN(CCCc2ccccc2)CC1 [Example Z80, (2-((3-Fluorobenzyl)amino)thieno[3,2-d]pyrimidin-4-yl)(4-(3-phenylpropyl)piperazin-1-yl)methanone] | 1.00 | > 500 nM | > 500 nM
16 | O=C(c1nc(NCc2cccc(F)c2)nc2ccsc12)N1CC[C@@H](O)C1 [Example Z81, (R)-(2-((3-Fluorobenzyl)amino)thieno[3,2-d]pyrimidin-4-yl)(3-hydroxypyrrolidin-1-yl)methanone] | 2.77 | 50 to 100 nM | 100 to 500 nM

Other lines, results leading:

Row | Ratio (adenosine A2B receptor) | IC50 (adenosine A2B receptor) | IC50 (adenosine A2A receptor) | Structure (SMILES)
17 | 1.00 | > 500 nM | > 500 nM | COc1ccc(CNc2nc(C(=O)N3CCCC3)c3sccc3n2)cc1OC [Example Z38, (2-((3,4-Dimethoxybenzyl)amino)thieno[3,2-d]pyrimidin-4-yl)(pyrrolidin-1-yl)methanone]
18 | 1.00 | > 500 nM | > 500 nM | Cc1cncc(CNC(=O)c2nc(NCc3cncc(C)c3)nc3ccsc23)c1 [Example Z45, N-((5-Methylpyridin-3-yl)methyl)-2-(((5-methylpyridin-3-yl)methyl)amino)thieno[3,2-d]pyrimidine-4-carboxamide]
19 | 0.62 | 100 to 500 nM | 100 to 500 nM | COc1ccc(CNC(=O)c2nc(NC(C)c3ccccn3)nc3ccsc23)cn1 (stereo not shown) [Example Z49, N-((6-Methoxypyridin-3-yl)methyl)-2-((1-(pyridin-2-yl)ethyl)amino)thieno[3,2-d]pyrimidine-4-carboxamide]
20 | 0.40 | 100 to 500 nM | 100 to 500 nM | O=C(NCc1ccccc1)c1nc(NCc2ccccc2)nc2ccsc12 [Example Z51, N-Benzyl-2-(benzylamino)thieno[3,2-d]pyrimidine-4-carboxamide]
21 | 50.76 | 100 to 500 nM | > 500 nM | Cc1cncc(CNc2nc(C(=O)N3CC[C@H](O)C3)c3sccc3n2)c1 [Example Z56, (S)-(3-Hydroxypyrrolidin-1-yl)(2-(((5-methylpyridin-3-yl)methyl)amino)thieno[3,2-d]pyrimidin-4-yl)methanone]
22 | 1.41 | 100 to 500 nM | 100 to 500 nM | COc1ccc(CNC(=O)c2nc(NCc3cncc(C)c3)nc3ccsc23)cn1 [Example Z57, N-((6-Methoxypyridin-3-yl)methyl)-2-(((5-methylpyridin-3-yl)methyl)amino)thieno[3,2-d]pyrimidine-4-carboxamide]
23 | 1.94 | 100 to 500 nM | 100 to 500 nM | C[C@H](Nc1nc(C(=O)NCc2ccc(C#N)nc2)c2sccc2n1)c1ccccn1 [Example Z64, (S)—N-((6-Cyanopyridin-3-yl)methyl)-2-((1-(pyridin-2-yl)ethyl)amino)thieno[3,2-d]pyrimidine-4-carboxamide]
24 | 14.95 | 50 to 100 nM | > 500 nM | COc1ccc(NC(=O)c2nc(N[C@@H](C)c3ccccn3)nc3ccsc23)cn1 [Example Z65, (S)—N-(6-Methoxypyridin-3-yl)-2-((1-(pyridin-2-yl)ethyl)amino)thieno[3,2-d]pyrimidine-4-carboxamide]
25 | – | 10 to 50 nM | 100 to 500 nM | COc1ccc(CNC(=O)c2nc(NCc3cncc(F)c3)nc3ccsc23)cn1 [Example Z67, 2-(((5-Fluoropyridin-3-yl)methyl)amino)-N-((6-methoxypyridin-3-yl)methyl)thieno[3,2-d]pyrimidine-4-carboxamide]
26 | – | 50 to 100 nM | 50 to 100 nM | O=C(NCC1CCN(Cc2ccccc2)CC1)c1nc(NCc2cncc(F)c2)nc2ccsc12 [Example Z68, N-((1-Benzylpiperidin-4-yl)methyl)-2-(((5-fluoropyridin-3-yl)methyl)amino)thieno[3,2-d]pyrimidine-4-carboxamide]
27 | 1.00 | > 500 nM | > 500 nM | O=C(NCc1ccc(C(F)(F)F)nc1)c1nc(NCc2ccc(C(F)(F)F)nc2)nc2ccsc12 [Example Z72, N-((6-(Trifluoromethyl)pyridin-3-yl)methyl)-2-(((6-(trifluoromethyl)pyridin-3-yl)methyl)amino)thieno[3,2-d]pyrimidine-4-carboxamide]
28 | 1.74 | 100 to 500 nM | 100 to 500 nM | O=C(NCc1cccc(F)c1)c1nc(NCc2cccc(F)c2)nc2ccsc12 [Example Z74, N-(3-Fluorobenzyl)-2-((3-fluorobenzyl)amino)thieno[3,2-d]pyrimidine-4-carboxamide]
29 | 2.02 | 50 to 100 nM | 100 to 500 nM | O=C(NCc1ccccn1)c1nc(NCc2ccccn2)nc2ccsc12 [Example Z78, N-(Pyridin-2-ylmethyl)-2-((pyridin-2-ylmethyl)amino)thieno[3,2-d]pyrimidine-4-carboxamide]
30 | 1.20 | 50 to 100 nM | 100 to 500 nM | C[C@H](Nc1nc(C(=O)NCc2ccc(C(F)(F)F)nc2)c2sccc2n1)c1ccccn1 [Example Z79, (S)-2-((1-(Pyridin-2-yl)ethyl)amino)-N-((6-(trifluoromethyl)pyridin-3-yl)methyl)thieno[3,2-d]pyrimidine-4-carboxamide]
31 | 1.03 | 50 to 100 nM | 50 to 100 nM | COc1ccc(CNC(=O)c2nc(NCc3cccc(F)c3)nc3ccsc23)cn1 [Example Z82, 2-((3-Fluorobenzyl)amino)-N-((6-methoxypyridin-3-yl)methyl)thieno[3,2-d]pyrimidine-4-carboxamide]
